Measured values reported in paper PMC10107996, “Release of hepatitis B virions is positively regulated by glucose‐regulated protein 78 through direct interaction with preS1” (Journal of Medical Virology, 2022).
“Also recorded” adds a separate entry of the source. No end group written: not given here.

B1: pep56 (19-DPAFGANSL-29) (peptide)
peptide: DPAFGANSL
notes: also called pepp56; source: designed hydrophobic peptide of preS1
B2: pep59 (70-QGIMQTVPAN-80) (peptide)
peptide: QGIMQTVPAN
notes: source: designed hydrophobic peptide of preS1
B3: GST-preS1-p2 (residues 25-90) (domain or fragment)
chain: FPDHQLDPAFGANSNNPDWDFNPNKDHWPEANQVGAGAFGPGFTPPHGGLLGWSPQAQGILTTLPA
modifications: also: GST fusion
B4: GST-preS1-p3 (residues 66-119) (domain or fragment)
chain: GFTPPHGGLLGWSPQAQGILTTLPAAPPPASTNRQSGRQPTPISPPLRDSHPQA
modifications: also: GST fusion

How the values were obtained:
[1] = biological target: T1, recombinant GRP78 (Homo sapiens, UniProt P11021); test: Isothermal titration calorimetry (ITC) with recombinant GRP78; assay type: binding
T1 construct: His; made in house; host or cells: Escherichia coli BL21
T1 sequence (P11021 19-654): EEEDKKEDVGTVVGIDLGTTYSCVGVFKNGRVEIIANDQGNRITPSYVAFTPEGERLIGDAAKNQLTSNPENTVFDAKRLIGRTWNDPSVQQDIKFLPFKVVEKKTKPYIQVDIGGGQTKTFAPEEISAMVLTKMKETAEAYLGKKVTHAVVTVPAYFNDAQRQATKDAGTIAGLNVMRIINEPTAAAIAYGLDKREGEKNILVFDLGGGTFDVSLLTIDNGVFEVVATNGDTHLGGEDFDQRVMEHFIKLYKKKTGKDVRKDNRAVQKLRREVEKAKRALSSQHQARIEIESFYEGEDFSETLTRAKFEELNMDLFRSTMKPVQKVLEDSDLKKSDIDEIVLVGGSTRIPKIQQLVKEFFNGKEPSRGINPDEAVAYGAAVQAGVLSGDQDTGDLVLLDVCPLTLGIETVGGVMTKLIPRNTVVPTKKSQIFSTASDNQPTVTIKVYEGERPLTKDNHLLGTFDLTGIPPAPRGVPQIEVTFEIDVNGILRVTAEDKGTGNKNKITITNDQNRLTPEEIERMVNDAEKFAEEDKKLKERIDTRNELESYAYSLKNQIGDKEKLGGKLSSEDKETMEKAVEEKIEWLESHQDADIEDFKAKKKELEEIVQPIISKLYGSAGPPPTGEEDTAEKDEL
Experimental: Additionally, we collected purified recombinant GRP78 protein (Supporting Information: Figure S2) and HBV‐enveloped particles from the cell supernatant, followed by separation by ultracentrifugation at 4°C for isothermal titration calorimetry (ITC) experiments. […] These findings confirmed the ability of HBV to promote GRP78 expression and identified that GRP78 directly interacts with preS1 and HBV‐enveloped particles.
Affinity constants under equilibrium (Ka) were obtained using a Nano ITC instrument. GRP78 protein solution (300 µL) was titrated with repeated injections of 40 µL solution until saturation at 25 °C. Nano Analyze software was used for the integration of heat signals and nonlinear regression analysis of the data.

[2] = system: HBV‐enveloped particle release from HepG2.2.15 cells; test: HBV-enveloped particle release and viral DNA content, particle gel assay and qPCR, HepG2.2.15 cells; assay type: cell-based, hepatitis B virus; conditions: for inhibition of GRP78-enhanced enveloped‐particle release and viral DNA content: GRP78‐overexpressing HepG2.2.15 cells
Experimental: (§1) HBV virions were identified by particle gel assay.[25] HBV‐producing cells were cultured, followed by harvesting of the culture medium. Cell supernatant was added to 35% PEG8000 and shaken at 4°C for >2 h. The viral particles were dissolved in TNE buffer, incubated overnight at 4°C, and subjected to agarose gel electrophoresis. The samples were transferred to a nitrocellulose membranes, treated with methanol for 30 min, blocked with 5% nonfat milk, and incubated with anti‐preS1 (for enveloped particles) or anti‐HBc (for capsid particles) antibodies for 1 h at 20°C. Following incubation with an antimouse secondary antibody (1:10,000) at 4°C overnight, the membrane was visualized using the an enhanced chemiluminescence western blot detection kit (Beyotime Biotech).

[3] = system: HBV‐enveloped particle release from HepAD38 cells; test: HBV-enveloped particle release, particle gel assay, HepAD38 cells; assay type: cell-based, hepatitis B virus
Experimental: as §1

[4] = biological target: T2, purified recombinant GRP78 protein (human, UniProt P11021 19-654); test: ITC; recombinant GRP78 with preS1 peptides; conditions: both partners purified
T2 construct: source: recombinant, purified
T2 sequence (P11021 19-654): as above

[5] = biological target: T2, purified recombinant GRP78 protein; test: MST; purified truncated GST-preS1 proteins with GRP78; conditions: both partners purified
[6] = synthesized peptide and recombinant GRP78, 25 °C

Molecule | N (sites) [1, 6] | △H [1, 6] | also measured
FHSHHNRPMKSP [GBP63, phage-display 12-mer peptide […]] | 0.248±3.22 sites | 8.83 ± 119 kcal/mol | 
GSWNTFRAQPTI [GBP64, phage-display 12-mer peptide […]] | 2.88±0.501 sites | 0.486 ± 0.186 kcal/mol | 
LTPHKHHKHLHA [GBP65] | 10.0±1.05 sites | 2.58 ± 0.647 kcal/mol | 
MKAHHSQLYPRH [GBP66, phage-display 12-mer peptide […]] | 10.0±2.38 sites | 1.55 ± 0.647 kcal/mol | 
QPTPISPPLRN [pep60, hydrophobic preS1 peptide 91‐[…]‐102] |  |  | interaction with GRP78 in words ([1]; 25 °C): weak interaction; inhibition of GRP78-enhanced enveloped‐particle release and viral DNA content ([2]; n = 3): minimal effects
SNIGALQFLPPP [GBP67, phage-display 12-mer peptide […]] | negative | negative | KD [1, 6]: negative
VTTVGMPNKSFF [GBP68] | 5.79±0.738 sites | 3.49 ± 0.881 kcal/mol | effect on abundance of cytoplasmic viral particles and core particle release ([2]; HepG2.2.15 and HepAD38 cells, particle gel assay with anti‐HBcAg and anti‐preS1 antibodies): negligible effects; inhibitory effect on HBV‐enveloped particle release and viral DNA content in supernatant ([2]; HepG2.2.15 cells, particle gel assay with anti‐preS1 antibody and qPCR, n = 3): significantly stronger inhibitory effect; also recorded: dose‐dependent manner; inhibition of enveloped‐particle release [3]: dose‐dependent manner
WDLAWMFRLPVG [pep415, reference compound] |  |  | inhibition of GRP78-enhanced enveloped‐particle release and viral DNA content ([2]; n = 3): inhibited
B1 |  |  | Kd [4]: 6.59 nM
B2 |  |  | Kd [4]: 10.6 nM
B3 |  |  | Kd [5]: 1200 nM
B4 |  |  | Kd [5]: 431 nM
